Data reported in article PMC9652372, “Glycolytic flux control by drugging phosphoglycolate phosphatase” (Nature Communications, 2022).
In brackets after ≈: the same amount, converted by molar mass. Several values for one entry are separate records, joined by “and”; a condition that tells them apart may be missing. Equal entries are not always repeated.

Key:
[1] = Compound solubility in 100% DMSO
murine PGP [2] = target: T1, murine PGP (Mus musculus, UniProt Q8CHP8); assay: SAR: CP1, CP2 and analogs on PGP phosphatase activity (PG); format: biochemical; design: His6 (N, cleaved yes); made in house; host or cells: Escherichia coli BL21 (DE3), pETM11, co-expressed with groES-groEL-tig; conditions: for inhibition of mPGP activity at 40 µM CP compared to DMSO control (%): single experiments Exp #1-3
T1 sequence (Q8CHP8 1-321): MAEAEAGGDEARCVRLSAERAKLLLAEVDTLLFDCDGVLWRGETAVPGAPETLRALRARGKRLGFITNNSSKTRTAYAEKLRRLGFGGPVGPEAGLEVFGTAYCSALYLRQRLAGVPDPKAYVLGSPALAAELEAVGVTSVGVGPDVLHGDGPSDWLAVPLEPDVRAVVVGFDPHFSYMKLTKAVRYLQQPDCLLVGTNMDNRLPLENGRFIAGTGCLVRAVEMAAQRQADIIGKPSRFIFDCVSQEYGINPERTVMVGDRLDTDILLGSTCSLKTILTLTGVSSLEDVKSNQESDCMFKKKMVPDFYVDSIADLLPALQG
Method: However, the DMSO concentration was kept constant across each assay. For SAR experiments, all compound stocks were prepared at 10 mM in 100% DMSO. A constant final DMSO concentration of 0.4% was maintained under all conditions, and solvent control samples contained 0.4% DMSO without compounds.
PGP phosphatase activity were assessed using recombinant, purified murine PGP and PG as a

murine PGP [3] = target: T1, murine PGP

Row | Structure (SMILES) | solubility in 100% DMSO [1] [mM] | inhibition of mPGP activity at 40 µM CP compared to DMSO control (%) (murine PGP [2]) | mPGP activity in presence of CP relative to DMSO controls, mPGP on PG (norm.) (murine PGP [2]; CP log[M] -4.39794) | mPGP activity in presence of CP relative to DMSO controls, mPGP on PG (norm.) (murine PGP [2]; CP log[M] -4.69897) | mPGP activity in presence of CP relative to DMSO controls, mPGP on PG (norm.) (murine PGP [2]; CP log[M] -5) | mPGP activity in presence of CP relative to DMSO controls, mPGP on PG (norm.) (murine PGP [2]; CP log[M] -5.30103) | mPGP activity in presence of CP relative to DMSO controls, mPGP on PG (norm.) (murine PGP [2]; CP log[M] -5.60206) | mPGP activity in presence of CP relative to DMSO controls, mPGP on PG (norm.) (murine PGP [2]; CP log[M] -5.90309) | mPGP activity in presence of CP relative to DMSO controls, mPGP on PG (norm.) (murine PGP [2]; CP log[M] -6.20412) | mPGP activity in presence of CP relative to DMSO controls, mPGP on PG (norm.) (murine PGP [2]; CP log[M] -6.50515) | mPGP activity in presence of CP relative to DMSO controls, mPGP on PG (norm.) (murine PGP [2]; CP log[M] -6.80618) | mPGP activity in presence of CP relative to DMSO controls, mPGP on PG (norm.) (murine PGP [2]; CP log[M] -7.10721) | other results
1 | O=C(Nc1ccc(Cc2ccc(NC(=O)c3cccs3)c(C(=O)O)c2)cc1C(=O)O)c1cccs1 [2D] | 50 (≈ 25.3 mg/mL) | 93.8547% and 93.1472% and 91.7582% | 0.09632 and 0.08995 and 0.05602 | 0.1303 and 0.1085 and 0.126 | 0.1756 and 0.1746 and 0.1485 | 0.2578 and 0.2672 and 0.2745 | 0.4504 and 0.4206 and 0.395 | 0.5949 and 0.6032 and 0.5826 | 0.7592 and 0.7328 and 0.6807 | 0.8952 and 0.8386 and 0.8543 | 0.932 and 0.8836 and 0.7843 | 0.9207 and 0.918 and 0.9468 | mPGP activity in presence of CP relative to DMSO controls, mPGP on PG (norm.) (murine PGP [2]; CP log[M] -7.40824): 0.9632 and 0.9206 and 0.9552
2 | COc1ccc(C(=O)Nc2ccccc2C(=O)O)cc1 [1E] | – | 33.1522% and 38.1356% and 45.1737% | – | – | – | – | – | – | – | – | – | – | –
3 | O=C(Cc1cccs1)Nc1ccc(Cc2ccc(NC(=O)Cc3cccs3)c(C(=O)O)c2)cc1C(=O)O [2C] | – | 80.4469% and 79.9492% and 79.3956% | 0.2193 and 0.2518 and 0.2324 | 0.388 and 0.3967 and 0.3732 | 0.5639 and 0.5534 and 0.5023 | 0.6916 and 0.6556 and 0.5915 | 0.788 and 0.7767 and 0.6502 | 0.8578 and 0.8527 and 0.8404 | 0.853 and 0.8789 and 0.9014 | 0.9181 and 0.905 and 0.9155 | 0.9349 and 0.9264 and 0.946 | 1.002 and 0.9691 and 0.9624 | mPGP activity in presence of CP relative to DMSO controls, mPGP on PG (norm.) (murine PGP [2]; CP log[M] -4.09691): 0.1542 and 0.1663 and 0.1408
4 | O=C(O)c1ccccc1N1C(=O)c2ccc(Oc3ccc4c(c3)C(=O)N(c3ccccc3C(=O)O)C4=O)cc2C1=O [1B] | – | 29.6196% and 23.1638% and 21.6216% | – | – | – | – | – | – | – | – | – | – | –
5 | Cc1nnc(SCC(=O)Nc2ccc(Cc3ccc(NC(=O)CSc4nnc(C)s4)c(C(=O)O)c3)cc2C(=O)O)s1 [2E] | 100 (≈ 63.1 mg/mL) | 43.2961% and 38.3249% and 35.989% | – | – | – | – | – | – | – | – | – | – | –
6 | O=C(O)c1cc(Cc2ccc(NC(=O)c3ccccc3[N+](=O)[O-])c(C(=O)O)c2)ccc1NC(=O)c1ccccc1[N+](=O)[O-] [2B] | 10 (≈ 5.84 mg/mL) | 97.486% and 99.4924% and 100.275% | 0.02406 and 0.01842 and 0.02506 | 0.04813 and 0.03947 and 0.05013 | 0.08824 and 0.08421 and 0.08772 | 0.1631 and 0.1684 and 0.1604 | 0.2914 and 0.2711 and 0.2932 | 0.4679 and 0.4553 and 0.4662 | 0.6203 and 0.5816 and 0.584 | 0.7781 and 0.7842 and 0.7769 | 0.8663 and 0.8184 and 0.817 | 0.9358 and 0.8579 and 0.8521 | mPGP activity in presence of CP relative to DMSO controls, mPGP on PG (norm.) (murine PGP [2]; CP log[M] -7.40824): 0.9332 and 0.9316 and 0.9248; PGP inhibitory potency compared to parental compound (murine PGP [2]; PG dephosphorylation assay): slightly more potent than the parental compound
7 | O=C(O)c1cccc(NC(=O)c2ccc(Oc3ccc(C(=O)Nc4cccc(C(=O)O)c4)cc3)cc2)c1 [1C] | – | 57.0652% and 64.9718% and 66.7954% | – | 0.5416 and 0.5073 and 0.4404 | 0.7056 and 0.6098 and 0.6376 | 0.8 and 0.7439 and 0.7317 | 0.9101 and 0.8268 and 0.7615 | 0.8683 and 0.8326 | – | – | – | – | mPGP activity in presence of CP relative to DMSO controls, mPGP on PG (norm.) (murine PGP [2]; CP log[M] -4): 0.1618 and 0.1854 and 0.172; mPGP activity in presence of CP relative to DMSO controls, mPGP on PG (norm.) (murine PGP [2]; CP log[M] -4.12494): 0.2268 and 0.2271; mPGP activity in presence of CP relative to DMSO controls, mPGP on PG (norm.) (murine PGP [2]; CP log[M] -4.30103): 0.3124 and 0.2854 and 0.2844; mPGP activity in presence of CP relative to DMSO controls, mPGP on PG (norm.) (murine PGP [2]; CP log[M] -4.60206): 0.427 and 0.4195 and 0.4312; mPGP activity in presence of CP relative to DMSO controls, mPGP on PG (norm.) (murine PGP [2]; CP log[M] -4.82391): 0.6225 and 0.5805 and 0.5711
8 | O=C(O)c1ccccc1NC(=O)c1ccccc1Oc1ccccc1C(=O)Nc1ccccc1C(=O)O [1D] | – | 14.6739% and 27.6836% and 20.8494% | – | – | – | – | – | – | – | – | – | – | –
9 | O=C(O)c1cc2ccccc2c(-c2c(O)c(C(=O)O)cc3ccccc23)c1O [GYJACFGQPFXKCA-UHFFFAOYSA-N] | – | – | – | – | – | – | – | – | – | – | – | – | IC50 (murine PGP [3]): > 50 µM
